Entries after “also recorded” stand apart in the source; their conditions may differ. Like-named read-outs stand apart in the source and are kept apart here.
Columns and labels:
pregnant rabbits = assay: Embryofetal development study, oral administration during organogenesis, rabbits; type: in vivo, rabbit
Method: The highest dose tested (50 mg/kg/day) was associated with plasma exposures (AUC) approximately 10 times that in humans at the MRHD.

healthy volunteers = assay: Resting blood pressure on concomitant administration with sumatriptan; type: in vivo, human; details: with sumatriptan 12 mg subcutaneous vs sumatriptan alone
Description: The relationship between pharmacodynamic activity and the mechanism(s) by which rimegepant exerts its clinical effects is unknown.

[1] = Cardiac electrophysiology (QT interval); type: in vivo, human; details: single dose 4 times the recommended dose
clinical = details: human, in vivo
Method: Following oral administration of NURTEC ODT, rimegepant is absorbed with the maximum concentration at 1.5 hours.
The steady state volume of distribution of rimegepant is 120 L. Plasma protein binding of rimegepant is approximately 96%.
(§1) Following oral administration of [^14C]-rimegepant to healthy male subjects, 78% of the total radioactivity was recovered in feces and 24% in urine. Unchanged rimegepant is the major single component in excreted feces (42%) and urine (51%).

[2] = Excretion after oral [14C]-rimegepant; type: in vivo, human; details: oral [14C]-rimegepant, healthy male subjects
Description: as §1

[3] = Dedicated clinical study, pharmacokinetics in hepatic impairment; type: in vivo, human
Method: In a dedicated clinical study comparing the pharmacokinetics of rimegepant in subjects with mild, moderate, and severe hepatic impairment to that with normal subjects (healthy matched control), the exposure of rimegepant (Cmax and AUC) following a single 75 mg dose was approximately 2-fold higher in subjects with severe impairment (Child-Pugh class C).

CYP2C9 = CYP2C9 (Homo sapiens, UniProt P11712); assay: In vitro enzyme study: substrate / metabolism; type: in vitro ADME; details: listed as Rimegepant
Description: (§2) Rimegepant is a substrate of CYP3A4 and CYP2C9 [see In Vivo Studies].

CYP3A4 [4] = target: T1, CYP3A4 (Homo sapiens, UniProt P08684); assay: In vitro enzyme study: substrate / metabolism; type: in vitro ADME
Description: as §2

CYP1A2 = assay: In vitro enzyme induction; type: in vitro ADME; details: at clinically relevant concentrations
Description: as §2

CYP2B6 = assay: In vitro enzyme induction; type: in vitro ADME; details: at clinically relevant concentrations
Description: as §2

CYP3A4 [5] = assay: In vitro enzyme induction; type: in vitro ADME; details: at clinically relevant concentrations
Description: as §2

BCRP = BCRP (Homo sapiens, UniProt Q9UNQ0); assay: In vitro transporter substrate study; type: in vitro ADME
Method: (§3) Rimegepant is a substrate of P-gp and BCRP. Concomitant administration of inhibitors of P-gp or BCRP may increase the exposure of rimegepant [see Drug Interactions]. No dedicated drug interaction study was conducted to assess their effects on the pharmacokinetics of rimegepant.

P-gp [6] = target: T2, P-gp (Homo sapiens, UniProt P08183); assay: In vitro transporter substrate study; type: in vitro ADME
Method: as §3

OATP1B1 = OATP1B1 (Homo sapiens, UniProt Q9Y6L6); assay: In vitro transporter substrate study; type: in vitro ADME
Description: (§4) Considering its low renal clearance, rimegepant was not evaluated as a substrate of the OAT1, OAT3, OCT2, MATE1, or MATE2-K.

OATP1B3 = OATP1B3 (Homo sapiens, UniProt Q9NPD5); assay: In vitro transporter substrate study; type: in vitro ADME
Description: as §4

P-gp [7] = target: T2, P-gp; assay: In vitro transporter inhibition; type: in vitro ADME; details: at clinically relevant concentrations
CYP3A4 and CYP2C9 = assay: Dedicated drug interaction study with fluconazole (combined moderate CYP3A4 and CYP2C9 inhibitor); type: in vivo, human; details: 75 mg single dose with fluconazole
Tg.rasH2 mice = assay: Carcinogenesis study, oral, 26 weeks, Tg.rasH2 mice; type: in vivo, mouse; details: oral 0, 10, 100, or 300 mg/k/day for 26 weeks
rats = assay: Carcinogenesis study, oral, 91-100 weeks, rats; type: in vivo, rat
[8] = system: Chinese hamster ovary cells; assay: Chromosomal aberration assay (in vitro); type: cell-based
Description: Rimegepant was negative in in vitro (bacterial reverse-mutation, chromosomal aberration in Chinese hamster ovary cells) and in vivo (rat micronucleus) assays.

male and female rats = assay: Fertility study, oral, male and female rats (0, 30, 60, or 150 mg/kg/day); type: in vivo, rat
CYP3A4 [9] = target: T1, CYP3A4; assay: Dedicated drug interaction study with itraconazole (strong CYP3A4 inhibitor); type: in vivo; design: endogenous in cells; host or cells: in vivo, endogenous enzyme of the study subjects; details: 75 mg single dose with itraconazole at steady state
CYP3A4 [10] = target: T1, CYP3A4; assay: Dedicated drug interaction study with rifampin (strong CYP3A4 inducer); type: in vivo; design: endogenous in cells; host or cells: in vivo, endogenous enzyme of the study subjects; details: 75 mg single dose with rifampin at steady state
Method: (§5) No dedicated drug interaction study was conducted to assess the effect of concomitant administration of a moderate or weak inducer of CYP3A4 on the pharmacokinetics of rimegepant.

CYP3A4 [11] = target: T1, CYP3A4; assay: Expected interactions with moderate or weak CYP3A4 inhibitors and inducers; type: in vivo; design: endogenous in cells; host or cells: in vivo, endogenous enzyme of the study subjects
Method: The concomitant administration of rimegepant with a moderate inhibitor of CYP3A4 may increase rimegepant exposures (AUC) by less than 2-fold [see Drug Interactions].
as §5

T1 sequence (P08684 whole entry): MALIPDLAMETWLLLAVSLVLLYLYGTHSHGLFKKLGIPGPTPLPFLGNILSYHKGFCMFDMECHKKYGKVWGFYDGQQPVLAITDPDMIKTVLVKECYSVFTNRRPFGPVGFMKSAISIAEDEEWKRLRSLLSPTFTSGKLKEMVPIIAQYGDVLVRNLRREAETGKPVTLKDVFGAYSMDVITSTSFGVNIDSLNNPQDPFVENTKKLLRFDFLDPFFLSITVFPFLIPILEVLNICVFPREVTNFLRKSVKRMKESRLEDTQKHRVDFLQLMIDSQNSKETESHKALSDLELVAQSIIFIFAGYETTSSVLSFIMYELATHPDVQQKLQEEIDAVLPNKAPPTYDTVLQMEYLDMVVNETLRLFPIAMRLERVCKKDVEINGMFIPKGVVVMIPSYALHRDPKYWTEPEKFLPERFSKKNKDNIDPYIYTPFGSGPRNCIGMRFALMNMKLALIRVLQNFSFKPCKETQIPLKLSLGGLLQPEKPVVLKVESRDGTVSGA
T2 sequence (P08183 whole entry): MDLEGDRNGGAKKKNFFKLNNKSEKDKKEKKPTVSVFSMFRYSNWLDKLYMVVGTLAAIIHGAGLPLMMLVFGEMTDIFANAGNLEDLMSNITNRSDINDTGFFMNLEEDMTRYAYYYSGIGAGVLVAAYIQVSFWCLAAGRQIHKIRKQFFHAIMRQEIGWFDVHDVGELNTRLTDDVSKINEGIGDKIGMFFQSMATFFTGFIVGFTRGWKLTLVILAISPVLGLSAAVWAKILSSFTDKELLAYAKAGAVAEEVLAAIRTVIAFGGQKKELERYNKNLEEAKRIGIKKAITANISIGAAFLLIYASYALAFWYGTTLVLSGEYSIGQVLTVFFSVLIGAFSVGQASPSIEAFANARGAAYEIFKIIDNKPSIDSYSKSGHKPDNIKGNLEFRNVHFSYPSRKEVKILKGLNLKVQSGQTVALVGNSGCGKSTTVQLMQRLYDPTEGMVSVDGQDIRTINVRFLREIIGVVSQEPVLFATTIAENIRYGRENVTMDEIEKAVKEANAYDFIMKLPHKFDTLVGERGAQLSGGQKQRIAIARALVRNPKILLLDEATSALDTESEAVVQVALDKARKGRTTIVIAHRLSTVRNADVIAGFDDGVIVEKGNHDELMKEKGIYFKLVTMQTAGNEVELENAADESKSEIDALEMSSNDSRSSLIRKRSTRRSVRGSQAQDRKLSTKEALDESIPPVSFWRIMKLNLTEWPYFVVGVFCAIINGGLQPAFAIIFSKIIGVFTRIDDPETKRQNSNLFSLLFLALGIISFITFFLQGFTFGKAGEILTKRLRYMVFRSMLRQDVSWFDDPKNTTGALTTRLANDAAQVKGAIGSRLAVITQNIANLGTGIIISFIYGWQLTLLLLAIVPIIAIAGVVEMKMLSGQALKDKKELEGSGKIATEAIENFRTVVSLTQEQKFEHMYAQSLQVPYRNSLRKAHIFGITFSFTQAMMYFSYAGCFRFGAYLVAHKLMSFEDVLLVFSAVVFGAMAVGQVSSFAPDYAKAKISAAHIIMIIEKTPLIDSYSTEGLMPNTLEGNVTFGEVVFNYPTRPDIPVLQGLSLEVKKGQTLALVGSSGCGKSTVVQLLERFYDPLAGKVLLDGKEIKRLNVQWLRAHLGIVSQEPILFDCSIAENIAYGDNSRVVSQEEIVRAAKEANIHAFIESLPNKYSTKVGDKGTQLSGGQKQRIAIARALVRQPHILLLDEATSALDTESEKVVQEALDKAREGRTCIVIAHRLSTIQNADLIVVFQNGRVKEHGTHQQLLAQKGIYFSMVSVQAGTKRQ
BCRP, sequence (Q9UNQ0 whole entry): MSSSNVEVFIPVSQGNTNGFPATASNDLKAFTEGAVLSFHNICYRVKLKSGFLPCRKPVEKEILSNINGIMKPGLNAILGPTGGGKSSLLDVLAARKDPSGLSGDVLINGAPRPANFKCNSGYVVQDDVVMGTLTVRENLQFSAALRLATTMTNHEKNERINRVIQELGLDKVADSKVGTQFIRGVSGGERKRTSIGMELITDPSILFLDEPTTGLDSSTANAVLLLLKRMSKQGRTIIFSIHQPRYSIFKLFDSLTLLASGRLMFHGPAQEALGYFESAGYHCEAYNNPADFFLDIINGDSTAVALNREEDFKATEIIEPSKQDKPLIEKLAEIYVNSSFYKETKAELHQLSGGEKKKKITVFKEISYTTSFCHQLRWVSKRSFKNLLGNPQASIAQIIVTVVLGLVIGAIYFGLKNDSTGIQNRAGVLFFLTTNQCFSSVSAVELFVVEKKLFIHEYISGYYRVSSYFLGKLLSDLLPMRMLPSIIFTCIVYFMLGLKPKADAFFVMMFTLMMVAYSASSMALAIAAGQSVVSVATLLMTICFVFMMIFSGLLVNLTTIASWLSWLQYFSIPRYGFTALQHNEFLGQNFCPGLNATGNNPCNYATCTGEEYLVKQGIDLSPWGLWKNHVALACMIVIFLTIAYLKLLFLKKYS
OATP1B1, sequence (Q9Y6L6 whole entry): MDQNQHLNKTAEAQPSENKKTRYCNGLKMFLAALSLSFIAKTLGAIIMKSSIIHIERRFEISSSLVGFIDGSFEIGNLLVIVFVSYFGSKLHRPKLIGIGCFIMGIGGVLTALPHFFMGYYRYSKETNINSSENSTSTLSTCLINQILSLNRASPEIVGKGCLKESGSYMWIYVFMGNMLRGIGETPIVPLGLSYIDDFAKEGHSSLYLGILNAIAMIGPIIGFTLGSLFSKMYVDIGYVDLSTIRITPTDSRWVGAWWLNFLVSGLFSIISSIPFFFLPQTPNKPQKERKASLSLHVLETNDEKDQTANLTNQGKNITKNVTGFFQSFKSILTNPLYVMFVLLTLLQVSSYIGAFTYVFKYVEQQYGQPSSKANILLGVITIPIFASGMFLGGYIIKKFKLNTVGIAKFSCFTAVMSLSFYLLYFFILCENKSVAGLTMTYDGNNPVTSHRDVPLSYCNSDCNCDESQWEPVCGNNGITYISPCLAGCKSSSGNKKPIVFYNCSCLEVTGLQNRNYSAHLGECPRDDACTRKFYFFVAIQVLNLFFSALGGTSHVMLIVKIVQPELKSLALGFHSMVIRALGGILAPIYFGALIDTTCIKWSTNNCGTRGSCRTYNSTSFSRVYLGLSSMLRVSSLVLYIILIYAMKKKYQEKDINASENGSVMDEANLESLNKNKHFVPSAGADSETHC
CYP2C9, sequence (P11712 whole entry): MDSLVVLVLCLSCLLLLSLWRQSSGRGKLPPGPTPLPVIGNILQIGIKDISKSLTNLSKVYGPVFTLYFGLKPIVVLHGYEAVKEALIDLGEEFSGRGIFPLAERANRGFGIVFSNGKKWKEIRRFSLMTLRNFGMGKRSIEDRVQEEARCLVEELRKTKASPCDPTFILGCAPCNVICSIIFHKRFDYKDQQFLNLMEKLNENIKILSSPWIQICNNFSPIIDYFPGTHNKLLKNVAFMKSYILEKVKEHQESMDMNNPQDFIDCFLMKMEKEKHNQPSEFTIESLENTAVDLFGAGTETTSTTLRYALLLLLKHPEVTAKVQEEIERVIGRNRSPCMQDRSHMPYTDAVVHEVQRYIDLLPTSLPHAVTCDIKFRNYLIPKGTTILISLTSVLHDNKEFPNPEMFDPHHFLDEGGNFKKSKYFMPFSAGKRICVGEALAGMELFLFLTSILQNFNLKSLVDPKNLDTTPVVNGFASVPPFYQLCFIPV
OATP1B3, sequence (Q9NPD5 whole entry): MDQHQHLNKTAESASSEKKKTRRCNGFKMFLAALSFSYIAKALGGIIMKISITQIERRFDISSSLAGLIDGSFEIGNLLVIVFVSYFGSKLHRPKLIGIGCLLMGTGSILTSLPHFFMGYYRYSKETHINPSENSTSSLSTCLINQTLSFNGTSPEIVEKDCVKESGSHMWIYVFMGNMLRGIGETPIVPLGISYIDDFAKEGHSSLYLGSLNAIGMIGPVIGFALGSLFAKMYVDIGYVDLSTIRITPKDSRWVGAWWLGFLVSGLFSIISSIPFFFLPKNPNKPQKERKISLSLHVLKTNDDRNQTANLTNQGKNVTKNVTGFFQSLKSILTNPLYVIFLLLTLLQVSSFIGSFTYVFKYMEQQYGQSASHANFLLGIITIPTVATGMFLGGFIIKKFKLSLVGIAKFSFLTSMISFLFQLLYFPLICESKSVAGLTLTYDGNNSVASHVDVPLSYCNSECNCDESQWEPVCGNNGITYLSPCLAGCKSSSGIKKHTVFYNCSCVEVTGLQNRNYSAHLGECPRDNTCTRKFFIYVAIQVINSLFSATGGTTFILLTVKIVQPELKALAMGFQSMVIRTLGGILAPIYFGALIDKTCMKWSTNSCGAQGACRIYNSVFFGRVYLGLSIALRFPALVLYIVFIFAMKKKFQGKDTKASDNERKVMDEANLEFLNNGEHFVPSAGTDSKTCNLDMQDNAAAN

N[C@@H]1c2cccnc2[C@H](OC(=O)N2CCC(n3c(=O)[nH]c4ncccc43)CC2)CC[C@H]1c1cccc(F)c1F [rimegepant, (5S,6S,9R)-5-amino-6-(2,3-difluorophenyl)-6,7,8,9-tetrahydro-5H-cyclohepta[b]pyridin-9-yl 4-(2-oxo-2,3-dihydro-1H-imidazo[4,5-b]pyridin-1-yl)-1-piperidinecarboxylate]
effects on embryofetal development (pregnant rabbits; 0, 10, 25, or 50 mg/kg/day oral): no adverse effects on embryofetal development | plasma exposure (AUC) relative to humans at the MRHD (pregnant rabbits; highest dose tested (50 mg/kg/day)): approximately 10 times | resting blood pressure (healthy volunteers): No clinically relevant differences in resting blood pressure | QT interval prolongation [1]: does not prolong the QT interval to any clinically relevant extent | eliminated in unchanged form (clinical): ~77 % of the dose | half-life (clinical): ~11 h | major metabolites (i.e., >10%) in plasma (clinical): no major metabolites | bioavailability (clinical; po): ~64% | unchanged rimegepant in excreted feces [2]: 42% | unchanged rimegepant in excreted urine [2]: 51% | difference in exposure vs normal hepatic function ([3]; mild (Child-Pugh class A) and moderate (Child-Pugh class B) hepatic impairment): no clinically meaningful differences | exposure (Cmax and AUC) higher than in normal subjects ([3]; single 75 mg dose, severe hepatic impairment (Child-Pugh class C)): approximately 2 fold | substrate of / metabolized by CYP2C9 (CYP2C9): substrate | substrate of / metabolized by CYP3A4 (CYP3A4 [4]): moderately sensitive substrate | substrate of / metabolized by CYP3A4 (CYP3A4 [4]; listed as Rimegepant): primarily metabolized; also recorded: substrate | induction of CYP1A2 (CYP1A2): not an inducer | induction of CYP2B6 (CYP2B6): not an inducer | induction of CYP3A4 (CYP3A4 [5]): not an inducer | substrate of BCRP (BCRP): substrate | substrate of P-gp (P-gp [6]): substrate | substrate of OATP1B1 (OATP1B1): not a substrate | substrate of OATP1B3 (OATP1B3): not a substrate | inhibition of P-gp (P-gp [7]): not an inhibitor | effect on rimegepant Cmax (CYP3A4 and CYP2C9): no relevant effect | increase of rimegepant AUC (CYP3A4 and CYP2C9): 1.8 fold | drug-induced tumors (Tg.rasH2 mice): no evidence of drug-induced tumors | plasma exposure (AUC) relative to humans at the MRHD of 75 mg/day (rats; highest dose tested (45 mg/kg/day)): approximately 30 times | drug-induced tumors (rats; oral 0, 5, 20, or 45 mg/kg/day for 91-100 weeks): no evidence of drug-induced tumors | mutagenesis, chromosomal aberration [8]: negative | fertility (male and female rats; highest dose tested (150 mg/kg/day)): reduced fertility at the highest dose tested | uterine histopathology (male and female rats; oral 30, 60, or 150 mg/kg/day, prior to and during mating, females to GD 7): uterine atrophy at all doses | increase of rimegepant AUC (CYP3A4 [9]): 4 fold | increase of rimegepant Cmax (CYP3A4 [9]): ~1.5 fold | decrease of rimegepant AUC (CYP3A4 [10]): 80% | decrease of rimegepant Cmax (CYP3A4 [10]): 64% | increase of rimegepant exposures (AUC) (CYP3A4 [11]; with a moderate inhibitor of CYP3A4, stated as 'may increase'): less than 2 fold | impact on rimegepant exposures (CYP3A4 [11]; with a weak inhibitor of CYP3A4, no dedicated study conducted): not expected to have a clinically significant impact | effect on rimegepant exposure (CYP3A4 [11]; with moderate inducers of CYP3A4, no dedicated study conducted): significant reduction in rimegepant exposure

Reference: US20230108049A1, “ORAL FAST-DISPERSING DOSAGE FORM OF RIMEGEPANT” (BIOHAVEN PHARMACEUTICAL HOLDING COMPANY LTD., priority 2020, published 2023)
